Assay results reported in US8158670B2 (priority 1996, dated 2012).
Read-outs that look alike come from different tables or passages of the source.

System: vascular smooth muscle cells

Q: What does the source list for `C=C1[C@@H](C)[C@H]2[C@H](Cc3ccccc3)NC(=O)[C@]23OC(=O)/C=C/[C@H](O)CCC[C@@H](C)C/C=C/[C@H]3[C@@H]1O` [cytochalasin B]?
A: morphological cytotoxicity grade (5 min + 24 hrs, 0.1 ug): 0; morphological cytotoxicity grade (5 min + 24 hrs, 1 ug): 0.5; morphological cytotoxicity grade (5 min + 24 hrs, 10 ug): 4; morphological cytotoxicity grade (5 min + 48 hrs, 0.1 ug): 0; morphological cytotoxicity grade (5 min + 48 hrs, 1 ug): 1; morphological cytotoxicity grade (5 min + 48 hrs, 10 ug): 4; morphological cytotoxicity grade (5 min + 72 hrs, 0.1 ug): 0; morphological cytotoxicity grade (5 min + 72 hrs, 1 ug): 1; morphological cytotoxicity grade (5 min + 72 hrs, 10 ug): 4.5; morphological cytotoxicity grade (5 min + 96 hrs, 0.1 ug): 0; morphological cytotoxicity grade (5 min + 96 hrs, 1 ug): 1; morphological cytotoxicity grade (5 min + 96 hrs, 10 ug): 5; morphological cytotoxicity grade (5 min + 120 hrs, 0.1 ug): 0; morphological cytotoxicity grade (5 min + 120 hrs, 1 ug): 1; morphological cytotoxicity grade (5 min + 120 hrs, 10 ug): 5; morphological cytotoxicity grade (24 hrs + 24 hrs, 0.01 ug): 0; morphological cytotoxicity grade (24 hrs + 24 hrs, 0.1 ug): 0.5; morphological cytotoxicity grade (24 hrs + 24 hrs, 1 ug): 3; morphological cytotoxicity grade (24 hrs + 48 hrs, 0.01 ug): 0; morphological cytotoxicity grade (24 hrs + 48 hrs, 0.1 ug): 1; morphological cytotoxicity grade (24 hrs + 48 hrs, 1 ug): 4; morphological cytotoxicity grade (24 hrs + 72 hrs, 0.01 ug): 0; morphological cytotoxicity grade (24 hrs + 72 hrs, 0.1 ug): 0.5; morphological cytotoxicity grade (24 hrs + 72 hrs, 1 ug): 4; morphological cytotoxicity grade (24 hrs + 96 hrs, 0.01 ug): 0; morphological cytotoxicity grade (24 hrs + 96 hrs, 0.1 ug): 0; morphological cytotoxicity grade (24 hrs + 96 hrs, 1 ug): 4; morphological cytotoxicity grade (24 hrs + 120 hrs, 0.01 ug): 0; morphological cytotoxicity grade (24 hrs + 120 hrs, 0.1 ug): 0; morphological cytotoxicity grade (24 hrs + 120 hrs, 1 ug): 4; morphological cytotoxicity grade (Continuous 6 hrs, 0.01 ug): 0; morphological cytotoxicity grade (Continuous 6 hrs, 0.1 ug): 0; morphological cytotoxicity grade (Continuous 6 hrs, 1 ug): 3; morphological cytotoxicity grade (Continuous 24 hrs (first listing, r16), 0.01 ug): 0; morphological cytotoxicity grade (Continuous 24 hrs (first listing, r16), 0.1 ug): 1; morphological cytotoxicity grade (Continuous 24 hrs (first listing, r16), 1 ug): 3; morphological cytotoxicity grade (Continuous 24 hrs (second listing, r22), 0.01 ug): 0; morphological cytotoxicity grade (Continuous 24 hrs (second listing, r22), 0.1 ug): 0; morphological cytotoxicity grade (Continuous 24 hrs (second listing, r22), 1 ug): 3; morphological cytotoxicity grade (Continuous 48 hrs, 0.01 ug): 0; morphological cytotoxicity grade (Continuous 48 hrs, 0.1 ug): 1; morphological cytotoxicity grade (Continuous 48 hrs, 1 ug): 3
